This passage reports IC50 results from patent US20100029657A1, “Bridged, Bicyclic Heterocyclic or Spiro Bicyclic Heterocyclic Derivatives of Pyrazolo[1, 5-A]Pyrimidines, Methods for Preparation and Uses Thereof” (Wyeth, priority 2008, published 2010).

Counter-ions that a name gives are not always drawn.

The target in the assay is T1, Flag/GST-tagged recombinant human B-Raf (Homo sapiens, UniProt P15056).
T1 construct: Flag; GST; made in house; host or cells: Sf9 insect cells (B-Raf); E. coli (MEK1-GST)
T1 sequence (P15056 whole entry): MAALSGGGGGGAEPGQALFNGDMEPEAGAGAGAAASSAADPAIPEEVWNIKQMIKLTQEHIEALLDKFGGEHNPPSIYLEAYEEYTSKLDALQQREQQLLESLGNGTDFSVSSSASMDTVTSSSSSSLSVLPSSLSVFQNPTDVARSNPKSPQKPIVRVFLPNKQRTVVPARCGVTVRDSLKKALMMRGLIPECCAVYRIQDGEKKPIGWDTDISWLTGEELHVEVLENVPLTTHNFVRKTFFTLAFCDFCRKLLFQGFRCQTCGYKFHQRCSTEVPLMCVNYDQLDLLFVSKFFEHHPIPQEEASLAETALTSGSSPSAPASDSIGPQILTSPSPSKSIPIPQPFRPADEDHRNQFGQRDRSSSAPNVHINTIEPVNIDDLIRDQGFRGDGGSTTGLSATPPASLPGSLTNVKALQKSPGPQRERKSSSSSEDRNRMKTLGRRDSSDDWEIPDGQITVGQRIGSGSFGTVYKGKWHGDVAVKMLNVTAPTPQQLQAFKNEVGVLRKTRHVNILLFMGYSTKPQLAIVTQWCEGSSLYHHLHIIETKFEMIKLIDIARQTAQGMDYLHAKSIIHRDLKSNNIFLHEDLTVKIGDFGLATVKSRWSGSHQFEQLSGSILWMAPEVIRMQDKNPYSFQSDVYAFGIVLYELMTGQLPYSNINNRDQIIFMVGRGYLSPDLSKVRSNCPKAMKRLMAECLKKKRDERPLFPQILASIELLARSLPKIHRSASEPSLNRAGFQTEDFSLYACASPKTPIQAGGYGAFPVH
The assay is described as follows: B-Raf kinase assay (phosphorylation of GST-MEK1, phospho-MEK1 antibody/Europium detection). In kind it is biochemical. Particulars: B-Raf IC50 Data for compounds of Formula A; read-out: Mean IC50. An outline of the steps:
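Active B-Raf (0.2 nM) phosphorylates GST-MEK1 in 20 mM MOPS pH 7.2 buffer with DTT, vanadate and 0.01% Triton X-100. The Mg/ATP cocktail (200 μM ATP, 40 mM MgCl2) is added, then incubation runs 45 min at RT. Product is captured on anti-GST plates and detected by anti-phospho-MEK1 plus Europium-anti-rabbit fluorescence, giving % inhibition per concentration.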
Consider `CCOC(=O)N1C2CCC1CC(c1ccnc3c(-c4cccc(-c5nnco5)c4)c(-c4ccncc4)nn13)C2` (centres unmarked) [Example 91, Ethyl 3-(3-(3-(1,3,4-oxadiazol-2-yl)phenyl)-2-(pyridin-4-yl)pyrazolo[1,5-a]pyrimidin-7-yl)-8-azabicyclo[3.2.1]octane-8-carboxylate], for which the half-maximal inhibitory concentration (IC50) came to 162 nM. The value for `Fc1cc(N2C[C@@H]3C[C@H]2CN3)ccc1-c1ccnc2c(-c3cccc4[nH]ncc34)c(-c3ccncc3)nn12` [Example 93, 7-{4-[(1S,4S)-2,5-diazabicyclo[2.2.1]hept-2-yl]-2-fluorophenyl}-3-(1H-indazol-4-yl)-2-pyridin-4-ylpyrazolo[1,5-a]pyrimidine] was less than 0.3 nM.

On to `CN1C[C@@H]2C[C@H]1CN2c1ccc(-c2ccnc3c(-c4cccc5[nH]ncc45)c(-c4ccncc4)nn23)c(F)c1` [Example 94, 7-{2-Fluoro-4-[(1S,4S)-5-methyl-2,5-diazabicyclo[2.2.1]hept-2-yl]phenyl}-3-(1H-indazol-4-yl)-2-pyridin-4-yl pyrazolo[1,5-a]pyrimidine], for which the concentration for half-maximal inhibition (IC50) turned out to be 0.1 nM. To `C[N+]1([O-])C[C@@H]2C[C@H]1CN2c1ccc(-c2ccnc3c(-c4cccc5[nH]ncc45)c(-c4ccncc4)nn23)c(F)c1` (stereo partly drawn) [Example 95, 7-{2-fluoro-4-[(1S,4S)-5-methyl-5-oxido-2,5-diazabicyclo[2.2.1]hept-2-yl]phenyl}-3-(1H-indazol-4-yl)-2-pyridin-4-ylpyrazolo[1,5-a]pyrimidine] belongs 0.59 nM. To `Clc1cc(N2C[C@@H]3C[C@H]2CN3)ccc1-c1ccnc2c(-c3cccc4[nH]ncc34)c(-c3ccncc3)nn12` [Example 97, 7-[2-Chloro-4-((1S,4S)-2,5-diaza-bicyclo[2.2.1]hept-2-yl)-phenyl]-3-(1H-indazol-4-yl)-2-pyridin-4-yl-pyrazolo[1,5-a]pyrimidine bis-hydrochloride salt] belongs less than 0.3 nM; to `CN1C[C@@H]2C[C@H]1CN2c1ccc(-c2ccnc3c(-c4cccc5[nH]ncc45)c(-c4ccncc4)nn23)c(Cl)c1` [Example 98, 7-[2-Chloro-4-((1S,4S)-5-methyl-2,5-diaza-bicyclo[2.2.1]hept-2-yl)-phenyl]-3-(1H-indazol-4-yl)-2-pyridin-4-yl-pyrazolo[1,5-a]pyrimidine], less than 0.3 nM; to `CC(C)(C)OC(=O)N1C[C@@H]2C[C@H]1CN2c1cc(F)c(-c2ccnc3c(-c4cccc5[nH]ncc45)c(-c4ccncc4)nn23)c(F)c1` [Example 99, tert-butyl(1S,4S)-5-{3,5-difluoro-4-[3-(1H-indazol-4-yl)-2-pyridin-4-ylpyrazolo[1,5-a]pyrimidin-7-yl]phenyl}-2,5-diazabicyclo[2.2.1]heptane-2-carboxylate], 1.6 nM. To `Fc1cc(N2C[C@@H]3C[C@H]2CN3)cc(F)c1-c1ccnc2c(-c3cccc4[nH]ncc34)c(-c3ccncc3)nn12` [Example 100, 7-(4-((1S,4S)-2,5-diazabicyclo[2.2.1]heptan-2-yl)-2,6-difluorophenyl)-3-(1H-indazol-4-yl)-2-(pyridin-4-yl)pyrazolo[1,5-a]pyrimidine] belongs less than 0.2 nM; to `CN1C[C@@H]2C[C@H]1CN2c1cc(F)c(-c2ccnc3c(-c4cccc5[nH]ncc45)c(-c4ccncc4)nn23)c(F)c1` [Example 101, 7-{2,6-difluoro-4-[(1S,4S)-5-methyl-2,5-diazabicyclo[2.2.1]hept-2-yl]phenyl}-3-(1H-indazol-4-yl)-2-pyridin-4-yl pyrazolo[1,5-a]pyrimidine], less than 0.1 nM; to `CC(C)(C)OC(=O)N1C[C@@H]2C[C@H]1CN2c1ccc(-c2ccnc3c(-c4ccc(F)c5[nH]ncc45)c(-c4ccncc4)nn23)cc1` [Example 102, tert-Butyl(1S,4S)-5-{4-[3-(7-fluoro-1H-indazol-4-yl)-2-pyridin-4-ylpyrazolo[1,5-a]pyrimidin-7-yl]phenyl}-2,5-diazabicyclo[2.2.1]heptane-2-carboxylate], 2.04 nM. For `Fc1ccc(-c2c(-c3ccncc3)nn3c(-c4ccc(N5C[C@@H]6C[C@H]5CN6)cc4)ccnc23)c2cn[nH]c12` [Example 103, 7-[4-(2,5-Diaza-bicyclo[2.2.1]hept-2-yl)-phenyl]-3-(7-fluoro-1H-indazol-4-yl)-2-pyridin-4-yl-pyrazolo[1,5-a]pyrimidine], the IC50 is less than 0.3 nM. The value for `CN1C[C@@H]2C[C@H]1CN2c1ccc(-c2ccnc3c(-c4ccc(F)c5[nH]ncc45)c(-c4ccncc4)nn23)cc1` [Example 104, 3-(7-fluoro-1H-indazol-4-yl)-7-{4-[(1S,4S)-5-methyl-2,5-diazabicyclo[2.2.1]hept-2-yl]phenyl}-2-pyridin-4-ylpyrazolo[1,5-a]pyrimidine hydrochloride] was 0.24 nM; that for `Fc1cc(N2C[C@@H]3C[C@H]2CN3)ccc1-c1ccnc2c(-c3ccc(F)c4[nH]ncc34)c(-c3ccncc3)nn12` [Example 106, 7-{4-[(1S,4S)-2,5-diazabicyclo[2.2.1]hept-2-yl]-2-fluorophenyl}-3-(7-fluoro-1H-indazol-4-yl)-2-pyridin-4-yl pyrazolo[1 5-a]pyrimidine] was less than 0.3 nM; that for `CN1C[C@@H]2C[C@H]1CN2c1ccc(-c2ccnc3c(-c4ccc(F)c5[nH]ncc45)c(-c4ccncc4)nn23)c(F)c1` [Example 107, 3-(7-fluoro-1H-indazol-4-yl)-7-{2-fluoro-4-[(1S,4S)-5-methyl-2,5-diazabicyclo[2.2.1]hept-2-yl]phenyl}-2-pyridin-4-ylpyrazolo[1,5-a]pyrimidine] was less than 0.3 nM. The value for `Fc1cc(N2C[C@@H]3C[C@H]2CN3)cc(F)c1-c1ccnc2c(-c3ccc(F)c4[nH]ncc34)c(-c3ccncc3)nn12` [Example 109, 7-{4-[(1S,4S)-2,5-Diazabicyclo[2.2.1]hept-2-yl]-2,6-difluorophenyl}-3-(7-fluoro-1H-indazol-4-yl)-2-pyridin-4-yl pyrazolo[1,5-a]pyrimidine] was less than 0.3 nM; that for `CN1C[C@@H]2C[C@H]1CN2c1cc(F)c(-c2ccnc3c(-c4ccc(F)c5[nH]ncc45)c(-c4ccncc4)nn23)c(F)c1` [Example 110, 7-{2,6-Difluoro-4-[(1S,4S)-5-methyl-2,5-diazabicyclo[2.2.1]hept-2-yl]phenyl}-3-(7-fluoro-1H-indazol-4-yl)-2-pyridin-4-yl pyrazolo[1,5-a]pyrimidine] was less than 0.1 nM; that for `OCCN1C2CCC1CC(c1ccnc3c(-c4cccc5[nH]ncc45)c(-c4ccncc4)nn13)C2` (centres unmarked) [Example 112, 2-{3-[3-(1H-indazol-4-yl)-2-pyridin-4-ylpyrazolo[1,5-a]pyrimidin-7-yl]-8-azabicyclo[3.2.1]oct-8-yl}ethanol] was 22.8 nM. To `CC(C)N1C2CCC1CC(c1ccnc3c(-c4cccc5[nH]ncc45)c(-c4ccncc4)nn13)C2` (centres unmarked) [Example 113, 3-(1H-indazol-4-yl)-7-(8-isopropyl-8-azabicyclo[3.2.1]oct-3-yl)-2-pyridin-4-ylpyrazolo[1,5-a]pyrimidine] belongs 67 nM. On to `NC(=O)N1C2CCC1CC(c1ccnc3c(-c4cccc5[nH]ncc45)c(-c4ccncc4)nn13)C2` (centres unmarked) [Example 115, 3-[3-(1H-indazol-4-yl)-2-pyridin-4-ylpyrazolo[1,5-a]pyrimidin-7-yl]-8-azabicyclo[3.2.1]octane-8-carboxamide], for which the IC50 was determined as 9.1 nM. To `CN(C)CC(=O)N1C2CCC1CC(c1ccnc3c(-c4cccc5[nH]ncc45)c(-c4ccncc4)nn13)C2` (centres unmarked) [Example 116, 2-{3-[3-(1H-indazol-4-yl)-2-pyridin-4-ylpyrazolo[1,5-a]pyrimidin-7-yl]-8-azabicyclo[3.2.1]oct-8-yl}-N,N-dimethyl-2-oxoethanamine] belongs 61.8 nM; to `N#CCN1C2CCC1CC(c1ccnc3c(-c4cccc5[nH]ncc45)c(-c4ccncc4)nn13)C2` (centres unmarked) [Example 117, {3-[3-(1H-indazol-4-yl)-2-pyridin-4-ylpyrazolo[1,5-a]pyrimidin-7-yl]-8-azabicyclo[3.2.1]oct-8-yl}acetonitrile], 2.8 nM; to `CCNC(=O)N1C2CCC1CC(c1ccnc3c(-c4cccc5[nH]ncc45)c(-c4ccncc4)nn13)C2` (centres unmarked) [Example 118, N-ethyl-3-[3-(1H-indazol-4-yl)-2-pyridin-4-ylpyrazolo[1,5-a]pyrimidin-7-yl]-8-azabicyclo[3.2.1]octane-8-carboxamide], 6.7 nM. As for `CC(=O)N1C2CCC1CC(c1ccnc3c(-c4cccc5[nH]ncc45)c(-c4ccncc4)nn13)C2` (centres unmarked) [Example 119, 7-(8-acetyl-8-azabicyclo[3.2.1]oct-3-yl)-3-(1H-indazol-4-yl)-2-pyridin-4-ylpyrazolo[1,5-a]pyrimidine], the half-inhibitory concentration (IC50) was 9.1 nM.

For the molecule `CN(C)C(=O)N1C2CCC1CC(c1ccnc3c(-c4cccc5[nH]ncc45)c(-c4ccncc4)nn13)C2` (centres unmarked) [Example 120, 3-[3-(1H-indazol-4-yl)-2-pyridin-4-ylpyrazolo[1,5-a]pyrimidin-7-yl]-N,N-dimethyl-8-azabicyclo[3.2.1]octane-8-carboxamide], the half-inhibitory concentration (IC50) came to 6.4 nM. Take `COc1cc(-c2c(-c3ccncc3)nn3c(CN4C[C@@H]5C[C@H]4CN5C(=O)OC(C)(C)C)ccnc23)ccc1Cl` [Example 121, tert-butyl (1S,4S)-5-{[3-(4-chloro-3-methoxyphenyl)-2-pyridin-4-ylpyrazolo[1,5-a]pyrimidin-7-yl]methyl}-2,5-diazabicyclo[2.2.1]heptane-2-carboxylate]: the IC50 is more than 100 nM.

Consider `CC(C)(C)OC(=O)N1C[C@@H]2C[C@H]1CN2c1ccc(-c2ccn3nc(-c4ccncc4)c(-c4ccc(F)c5[nH]ncc45)c3n2)cc1` [Example 122, tert-butyl (1S,4S)-5-{4-[3-(7-fluoro-1H-indazol-4-yl)-2-pyridin-4-ylpyrazolo[1,5-a]pyrimidin-5-yl]phenyl}-2,5-diazabicyclo[2.2.1]heptane-2-carboxylate], for which the IC50 turned out to be 19.1 nM.

In general, IC50 refers to the concentration at which inhibition is half-maximal.
